Experimental data: patent US12649750B2, “Macrocyclic compounds, compositions, and methods of using thereof” (Sionna Therapeutics Inc., priority 2022, dated 2026)

What was measured:
[1] = target: T1, NBD1 (Homo sapiens, UniProt P13569); test: Aggregation analysis using differential static light scattering (DSLS), thermal stability of NBD1 (ΔTagg); format: binding; details: ΔTagg versus DMSO control, NBD1 0.2 mg/ml
T1 construct: Purified recombinant NBD1 was produced using previously described methods; made in house
Method in brief: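 Read-out is ΔTagg: the aggregation temperature, taken at the inflection of the light-scattering curve, less the average of DMSO control wells. Recombinant NBD1 (0.2 mg/ml, pH7.6 buffer containing 2 mM ATP) with test compound was heated at 1° C. per minute up to 70° C.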

[2] = target: T2, CFTR (Homo sapiens, UniProt P13569, DEL508-508); test: TECC24 AUC fold over DMSO @10 μM, CFTR-mediated transepithelial chloride transport in CF-HBE cells; format: cell-based; details: test agent AUC divided by DMSO vehicle AUC, primary CF-HBE cells, ΔF508 homozygous donor, 48 hours incubation
T2 construct: Primary human bronchial epithelial cells from a ΔF508 homozygous CF donor; host or cells: primary human bronchial epithelial cells (CF-HBE), ΔF508 homozygous donor
Method in brief: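 Primary ΔF508-homozygous CF bronchial epithelial cells on inserts were incubated 48 h at 36.5 °C with compound in IL-13-containing medium. VT and TEER were then recorded in current-clamp mode (pH 7.4 HEPES bath) with benzamil 10 μM, forskolin 10 μM, then CFTR inhibitor-172 20 μM. The IEQ AUC between forskolin and inhibitor was divided by vehicle AUC.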

T1 sequence (P13569 423-646 limits assumed): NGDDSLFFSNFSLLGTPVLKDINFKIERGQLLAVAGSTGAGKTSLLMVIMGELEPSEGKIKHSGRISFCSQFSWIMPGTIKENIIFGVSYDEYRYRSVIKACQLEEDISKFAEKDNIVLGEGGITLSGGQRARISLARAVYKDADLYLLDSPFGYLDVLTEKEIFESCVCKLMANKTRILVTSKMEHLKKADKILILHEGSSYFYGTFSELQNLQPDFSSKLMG
T2 sequence (P13569 with tags, fused parts or gaps DEL508-508): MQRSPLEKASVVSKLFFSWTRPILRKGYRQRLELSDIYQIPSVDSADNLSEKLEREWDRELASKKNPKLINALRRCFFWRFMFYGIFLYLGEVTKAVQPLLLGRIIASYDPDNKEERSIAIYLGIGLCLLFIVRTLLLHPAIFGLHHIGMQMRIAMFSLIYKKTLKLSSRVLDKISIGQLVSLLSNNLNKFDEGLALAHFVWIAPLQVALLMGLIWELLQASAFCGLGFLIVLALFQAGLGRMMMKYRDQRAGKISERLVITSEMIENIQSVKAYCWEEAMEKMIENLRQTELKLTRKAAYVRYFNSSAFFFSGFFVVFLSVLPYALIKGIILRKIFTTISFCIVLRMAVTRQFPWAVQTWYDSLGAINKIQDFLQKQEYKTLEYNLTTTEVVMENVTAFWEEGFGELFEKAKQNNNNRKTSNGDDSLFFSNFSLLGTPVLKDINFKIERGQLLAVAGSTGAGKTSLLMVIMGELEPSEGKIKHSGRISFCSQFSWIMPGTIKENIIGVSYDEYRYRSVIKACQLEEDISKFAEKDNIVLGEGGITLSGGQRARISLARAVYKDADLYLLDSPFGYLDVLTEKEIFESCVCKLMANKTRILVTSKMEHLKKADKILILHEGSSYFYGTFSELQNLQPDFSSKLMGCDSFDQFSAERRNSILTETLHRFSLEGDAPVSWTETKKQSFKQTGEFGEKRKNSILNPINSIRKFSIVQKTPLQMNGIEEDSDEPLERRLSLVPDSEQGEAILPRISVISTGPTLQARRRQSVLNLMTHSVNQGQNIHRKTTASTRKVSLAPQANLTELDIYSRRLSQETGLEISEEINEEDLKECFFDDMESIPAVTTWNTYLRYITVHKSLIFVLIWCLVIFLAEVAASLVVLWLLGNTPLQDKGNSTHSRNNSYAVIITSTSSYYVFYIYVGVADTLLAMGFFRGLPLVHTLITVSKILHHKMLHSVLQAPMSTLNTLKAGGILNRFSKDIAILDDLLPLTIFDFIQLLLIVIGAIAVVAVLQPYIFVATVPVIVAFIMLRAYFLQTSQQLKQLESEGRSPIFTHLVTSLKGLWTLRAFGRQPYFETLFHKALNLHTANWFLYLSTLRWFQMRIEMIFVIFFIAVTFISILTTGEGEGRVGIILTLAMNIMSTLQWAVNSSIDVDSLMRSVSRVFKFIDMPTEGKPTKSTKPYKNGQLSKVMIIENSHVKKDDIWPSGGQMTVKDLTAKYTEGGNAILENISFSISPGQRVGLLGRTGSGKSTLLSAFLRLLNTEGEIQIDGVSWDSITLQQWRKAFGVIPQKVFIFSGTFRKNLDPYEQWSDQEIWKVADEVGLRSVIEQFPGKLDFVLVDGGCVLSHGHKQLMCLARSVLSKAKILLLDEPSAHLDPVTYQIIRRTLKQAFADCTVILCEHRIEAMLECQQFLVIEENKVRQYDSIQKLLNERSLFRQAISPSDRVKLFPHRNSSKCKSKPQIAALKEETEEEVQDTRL

Q: What does the source list for `[2H]C([2H])([2H])C1(c2cccc(/C=C/C(=O)O)c2)CCCC(C)(C)CS(=O)(=O)CCc2c(c(F)cc3[nH]ccc23)Oc2ccc(F)c(c2)-c2nc1nn2C` (single isomer, unassigned) [Compound 15B, (E)-3-[3-[22,28-difluoro-3,10,10-trimethyl-12,12-dioxo-6-(trideuteriomethyl)-24-oxa-12lambda6-thia-3,4,19,30-tetrazapentacyclo[23.3.1.12,5.015,23.016,20]triaconta-1(29),2(30),4,15,17,20,22,25,27-nonaen-6-yl]phenyl]prop-2-enoic Acid]?
A: DSLS 3D (100 μM ΔT) [1]: B (a value above 5 °C and less than or equal to 10 °C is marked “B”); TECC (AUC, 10 μM) [2]: A (a TECC value less than 12 is marked “A”)

Q: With `CC(Cc1cccc(C2(C#N)CCCC(C)(C)CS(=O)(=O)CCc3c(c(F)cc4[nH]ccc34)Oc3ccc(F)c(c3)-c3nc2nn3C)c1F)C(=O)O` (single isomer, unassigned) [Compound 124A, 3-[3-(6-cyano-22,28-difluoro-3,10,10-trimethyl-12,12-dioxo-24-oxa-12λ6-thia-3,4,19,30-tetrazapentacyclo-[23.3.1.12,5.015,23.016,20]triaconta-1(29),2(30),4,15,17,20,22,25,27-nonaen-6-yl)-2-fluoro-phenyl]-2-methyl-propanoic Acid] as the compound, how does the “DSLS 3D (100 μM ΔT)” value [1] read?
A: C (a value greater than 10 °C and less than or equal to 25 °C is marked “C”)

Q: What about the “TECC (AUC, 10 μM)” value [2] of the same compound?
A: A (a TECC value less than 12 is marked “A”)

Q: Which “DSLS 3D (100 μM ΔT)” value [1] does the source give for `Cn1nc2nc1-c1cc(ccc1F)[S+]([O-])c1c(F)cc3[nH]ccc3c1CCS(=O)(=O)CC(C)(C)CCC[C@]2(C)c1cccc(CCS(C)(=O)=O)c1` (single isomer, unassigned) [Compound 220A] here?
A: A (an ΔTagg value less than or equal to 5 °C is marked “A”)

Q: And the “TECC (AUC, 10 μM)” value [2]?
A: A (a TECC value less than 12 is marked “A”)

Q: What does the source list for `C[C@@H](Cc1cccc([C@@]2(C)CCCC(C)(C)CS(=O)(=O)CCc3c(c(F)cc4[nH]ccc34)[S+]([O-])c3ccc(F)c(c3)-c3nc2co3)c1)C(=O)O` (single isomer, unassigned) [Compound 248A]?
A: DSLS 3D (100 μM ΔT) [1]: C (a value greater than 10 °C and less than or equal to 25 °C is marked “C”); TECC (AUC, 10 μM) [2]: C (a value between 20 and 80 is marked “C”)

Q: For `CC(CC(=O)O)c1cccc(C2(C)CCCC(C)(C)CS(=O)(=O)CCc3c(c(F)cc4[nH]ccc34)Oc3ccc(F)c(c3)-c3nc2nn3C)c1` (single isomer, unassigned) [Compound 79A, 3-[3-(22,28-difluoro-3,6,10,10-tetramethyl-12,12-dioxo-24-oxa-12lambda6-thia-3,4,19,30-tetrazapentacyclo[23.3.1.12,5.015,23.016,20]triaconta-1(29),2(30),4,15,17,20,22,25,27-nonaen-6-yl)phenyl]butanoic Acid], which “DSLS 3D (100 μM ΔT)” value [1] is on record?
A: C (a value greater than 10 °C and less than or equal to 25 °C is marked “C”)

Q: What about the “TECC (AUC, 10 μM)” value [2] of the same compound?
A: C (a value between 20 and 80 is marked “C”)

Q: `CC(Cc1cccc(C2(C)CCS(=O)(=O)CC(C)(C)c3cnn(c3)Cc3c(c(F)cc4[nH]ccc34)Oc3ccc(F)c(c3)-c3nc2nn3C)c1)C(=O)O` (stereo not drawn) [Compound 110, 3-[3-(24,30-Difluoro-3,6,11,11-tetramethyl-9,9-dioxo-26-oxa-9lambda6-thia-3,4,14,15,21,33-hexazahexacyclo-[25.3.1.12,5.112,15.017,25.018,22]tritriaconta-1(31),2(33),4,12(32),13,17,19,22,24,27,29-undecaen-6-yl)phenyl]-2-methyl-propanoic Acid] was tested. Which “DSLS 3D (100 μM ΔT)” value [1] did it give?
A: B (a value above 5 °C and less than or equal to 10 °C is marked “B”)

Q: And the “TECC (AUC, 10 μM)” value [2]?
A: C (a value between 20 and 80 is marked “C”)
